In US20160222021A1, “ARYL ETHER-BASE KINASE INHIBITORS” (BRISTOL-MYERS SQUIBB COMPANY, priority 2013, published 2016):

Legend:
[1] = target: AAK1 (full length human) in HEK293F cells (Homo sapiens, UniProt Q2M2I8); assay: HEK293F Cell-Based Assay (phospho-mu2 Western blot); conditions: 3 hours
Experimental: HEK293F cells were cultured in media containing DMEM (Gibco, cat. #11965), 10% FBS (SAFC Biosciences, cat. #12103C), 1×GPS (glutamine, penicillin and streptomycin). On day one, cells were plated on a 10 cm dish so that they are ˜80% confluent at time of transfection. Roughly 12 million cells were in a 10 cm dish at time of transfection. On day two, each dish was transfected with 48 ug DNA and 144 ul Lipofectamine 2000 (Invitrogen, cat. #11668-019). The DNA was comprised of a mixture (per 10 cm dish) containing 3 ug AAK1/HA/pIRES (full length human, NCBI accession no. NP_055726.2), 45 μg Flag/AP2MI/pcDNA (full length human), and 1.5 ml OPTI-MEM. The Lipofectamine 2000 is made up of a mixture (per 10 cm dish) containing 144 μl Lipofectamine 2000 and 1.5 ml OPTI-MEM. Each mixture was transferred to individual 15 ml tubes and incubated at RT for 5 minutes, and then the two mixes were combined and incubated at RT for 20 minutes. Growth media was then aspirated from each 10 cm plate and replaced with 10 ml of DMEM+10% FBS (no GPS). Finally, 3 ml DNA/Lipofectamine mix was added to each 10 cm dish and mix gently followed by incubate of plate overnight at 37° C. and 5% CO2.
On day three, compounds were diluted in 100% DMSO at 1000× final concentration, followed by 3-fold serial dilutions for a total of 5 concentrations tested. Four compounds were tested per 10 cm dish. One ul of each compound dilution was then pipetted into a deep-well, 96-well plate, followed by addition of 500 μl DMEM+0.5% FBS into each well for a 2× final concentration of each compound. Cells were resuspended in a 10 cm dish by simple pipetting (HEK293 cells come off the plate that easy at this point) and then transferred to a 50 ml conical tube and pelleted by centrifugation at 1000 rpm for 5 min. Cell pellets were then resuspended in 2.75 ml DMEM+0.5% FBS per 10 cm dish and 100 μl of cell suspension transferred into each well of 96-well TC plate. Finally, 100 μl of 2× compound diluted in DMEM+0.5% FBS was then added into wells containing cell suspension for a 1× final concentration. Plates were then incubated at 37° C. and 5% CO2 for 3 hours followed by transferring of cell suspensions from each well into 12-tube PCR strips. The PCR strips were spun in a tip rack at 1000 rpm for 5 minutes to pellet cells and media was then removed by pipetting without disturbing the cell pellet.
To prepare for Western Blot analysis, cell pellets were resuspend in 40 ul 1× LDS-PAGE sample buffer (Invitrogen, cat. # NP0008)+2× Halt phophatase and protease inhibitor cocktail (Thermo Scientific, cat. #1861284), followed by sonicating each with microtip sonicator set at 5 for 8-10 seconds. Five ul of 10× NuPage Sample Reducing Agent (with 50 mM DTT) was to each sample followed by heat denaturing at 70 C for 10 min on PCR machine. A total of 10 μl per sample was loaded into each lane of a 4-20% Tris-Glycine Criterion 26-well gel (Biorad, cat. #345-0034) for the phospho-mu2 blot and 10 μl per lane in a 4-12% Bis-Tris (+MES buffer) NuPAGE 26-well gel (Invitrogen, cat. # WG1403BX10) for the mu2 blot. For controls, 2 ng of phospho-mu2 or 20 ng mu2/Flag proteins were loaded in the last well of each gel. After SDS-PAGE, samples on each gel were transferred to PVDF membrane using an iBlot and membranes were blocked for one hour in TBST+5% milk, followed by wash 3× for 5-10 min with TBST. Criterion gels were probed with rabbit anti-phospho-mu2 (1:5000; a rabbit polyclonal antibody produced by New England Peptide and affinity purified at Lexicon) in TBST+5% BSA, whereas, NuPAGE gels were probed with mouse anti-Flag (1:500; Sigma, cat. # F1804) in TBST+5% milk, and these primary antibodies were incubated overnight at 4° C. on a rocker. […]

[2] = target: T1, GST-Xa-hAAK1 (Homo sapiens, UniProt Q2M2I8); assay: AAK1 Kinase Assay; type: biochemical; conditions: ATP 22 μM
T1 construct: made in house
Experimental: The assays were performed in U-bottom 384-well plates. The final assay volume was 30 μl prepared from 15 μl additions of enzyme and substrates (fluoresceinated peptide (5-FAM)-Aha-[…]-NH2 and ATP) and test compounds in assay buffer (10 mM Tris-HCL pH 7.4, 10 mM MgCl2, 0.01% Tween-20 and 1.0 mM DTT). The reactions were initiated by the combination of bacterially expressed, GST-Xa-hAAK1 with substrates and test compounds. The reactions were incubated at room temperature for 3 hours and terminated by adding 60 μl of 35 mM EDTA buffer to each sample. The reactions were analyzed on the Caliper LabChip 3000 (Caliper, Hopkinton, Mass.) by electrophoretic separation of the fluorescent substrate and phosphorylated product. […] The final concentration of reagents in the assays are ATP, 22 μM; (5-FAM)-Aha-[…]-NH2, 1.5 μM; GST-Xa-hAAK1, 3.5 nM; and DMSO, 1.6%. Dose response curves were generated to determine the concentration required inhibiting 50% of kinase activity (IC50). Compounds were dissolved at 10 mM in dimethylsulfoxide (DMSO) and evaluated at eleven concentrations. IC50 values were derived by non-linear regression analysis.

Sequence of AAK1 (full length human) in HEK293F cells (Q2M2I8 1-822 limits assumed): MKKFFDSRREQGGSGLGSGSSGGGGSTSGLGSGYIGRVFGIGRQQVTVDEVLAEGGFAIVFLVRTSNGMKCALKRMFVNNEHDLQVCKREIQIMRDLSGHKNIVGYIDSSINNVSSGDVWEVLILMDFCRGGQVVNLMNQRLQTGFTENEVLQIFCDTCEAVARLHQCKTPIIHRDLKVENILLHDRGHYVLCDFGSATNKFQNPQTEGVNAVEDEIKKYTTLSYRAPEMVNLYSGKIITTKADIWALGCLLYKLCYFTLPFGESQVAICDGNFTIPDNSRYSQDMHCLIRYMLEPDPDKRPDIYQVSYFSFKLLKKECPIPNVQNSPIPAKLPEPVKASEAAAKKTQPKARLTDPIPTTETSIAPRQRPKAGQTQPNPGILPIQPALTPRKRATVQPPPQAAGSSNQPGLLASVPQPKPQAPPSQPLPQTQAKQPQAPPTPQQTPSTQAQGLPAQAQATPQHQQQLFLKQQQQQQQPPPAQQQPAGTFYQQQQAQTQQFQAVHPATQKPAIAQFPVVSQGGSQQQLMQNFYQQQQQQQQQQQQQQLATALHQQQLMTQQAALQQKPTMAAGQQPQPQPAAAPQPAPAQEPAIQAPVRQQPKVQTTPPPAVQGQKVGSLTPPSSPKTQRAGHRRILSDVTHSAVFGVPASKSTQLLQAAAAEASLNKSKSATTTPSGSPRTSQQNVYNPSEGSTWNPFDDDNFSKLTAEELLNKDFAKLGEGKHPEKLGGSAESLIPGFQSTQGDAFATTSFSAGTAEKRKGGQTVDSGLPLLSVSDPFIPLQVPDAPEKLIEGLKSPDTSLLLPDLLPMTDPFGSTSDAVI
T1 sequence (Q2M2I8 whole entry): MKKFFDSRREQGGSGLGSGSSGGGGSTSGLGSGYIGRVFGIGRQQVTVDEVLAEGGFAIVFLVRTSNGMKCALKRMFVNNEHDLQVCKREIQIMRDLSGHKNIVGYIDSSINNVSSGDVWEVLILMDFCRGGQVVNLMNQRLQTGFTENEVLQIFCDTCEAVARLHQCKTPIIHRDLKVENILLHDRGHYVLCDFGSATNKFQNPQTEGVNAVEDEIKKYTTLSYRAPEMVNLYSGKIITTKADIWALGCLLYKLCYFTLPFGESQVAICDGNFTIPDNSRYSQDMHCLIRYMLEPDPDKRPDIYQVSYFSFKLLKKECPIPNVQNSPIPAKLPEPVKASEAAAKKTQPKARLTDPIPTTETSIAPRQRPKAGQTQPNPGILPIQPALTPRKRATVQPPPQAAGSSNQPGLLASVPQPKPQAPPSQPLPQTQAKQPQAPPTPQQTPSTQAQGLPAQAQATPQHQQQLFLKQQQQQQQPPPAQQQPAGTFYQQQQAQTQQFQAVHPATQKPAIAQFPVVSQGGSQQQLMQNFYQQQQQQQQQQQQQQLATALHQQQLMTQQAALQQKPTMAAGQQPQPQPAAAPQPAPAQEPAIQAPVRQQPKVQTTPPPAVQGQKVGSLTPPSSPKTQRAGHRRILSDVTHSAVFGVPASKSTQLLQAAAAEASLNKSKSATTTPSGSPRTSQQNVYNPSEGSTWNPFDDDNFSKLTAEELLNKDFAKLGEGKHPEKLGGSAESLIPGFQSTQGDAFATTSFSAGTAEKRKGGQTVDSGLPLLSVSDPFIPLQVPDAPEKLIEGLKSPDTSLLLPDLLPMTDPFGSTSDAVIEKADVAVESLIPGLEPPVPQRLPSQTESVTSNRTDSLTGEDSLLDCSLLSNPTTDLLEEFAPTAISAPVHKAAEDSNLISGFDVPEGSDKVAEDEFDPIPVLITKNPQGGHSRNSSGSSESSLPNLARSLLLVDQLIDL

| IC50 ([1]; IC50 ranges) [nM] | IC50 ([2]; IC50 ranges) [nM] | IC50 ([1]; numeric values) [nM] | IC50 ([2]; numeric values) [nM] | Compound |
| --- | --- | --- | --- | --- |
| 10 to 100 | 1 to 10 | – | – | CC1Oc2cc(OCC(N)CC(C)(C)F)ccc2-c2ccncc21 (centres unmarked) [Example 26, 4-fluoro-4-methyl-1-(5-methyl-5H-chromeno[3,4-c]pyridin-8-yloxy)pentan-2-amine] |
| 1 to 10 | 1 to 10 | – | – | COC(=O)Nc1ncc2c(c1Cl)-c1cc(Cl)c(OC[C@@](C)(N)CC(C)C)cc1OC2 [Example 82, (S)-methyl (8-((2-amino-2,4-dimethylpentyl)oxy)-1,9-dichloro-5H-chromeno[3,4-c]pyridin-2-yl)carbamate] |
| – | – | 15 | 5.2 | CC(C)C[C@H](N)COc1ccc2c(c1)OCc1cnc(NC(=O)OC(C)C)cc1-2 [Example 64, (S)-isopropyl (8-((2-amino-4-methylpentyl)oxy)-5H-chromeno[3,4-c]pyridin-2-yl)carbamate] |
| < 1 | 1 to 10 | – | – | CC(=O)Nc1cc2c(cn1)COc1c-2ccc(OC[C@@H](N)CC(C)C)c1OC(F)F [Example 59, (S)—N-(8-((2-amino-4-methylpentyl)oxy)-7-(difluoromethoxy)-5H-chromeno[3,4-c]pyridin-2-yl)acetamide] |
| < 1 | < 1 | – | – | CC(=O)Nc1cc2c(cn1)COc1c-2ccc(OCC(C)(N)CC(C)C)c1OC(F)F (racemic) [Example 65, N-(8-((2-amino-2,4-dimethylpentyl)oxy)-7-(difluoromethoxy)-5H-chromeno[3,4-c]pyridin-2-yl)acetamide] |
| < 1 | 1 to 10 | – | – | COC(=O)Nc1cc2c(cn1)COc1c-2ccc(OC[C@@H](N)CC(C)C)c1Cl [Example 74, (S)-methyl (8-((2-amino-4-methylpentyl)oxy)-7-chloro-5H-chromeno[3,4-c]pyridin-2-yl)carbamate] |
| 10 to 100 | 10 to 100 | – | – | CC(C)C[C@H](N)COc1ccc2c(c1)OC(C(F)(F)F)c1cnccc1-2 (single isomer, unassigned; diastereomer 1) [Example 52] |
| < 1 | < 1 | – | – | CCOC(=O)Nc1cc2c(cn1)COc1cc(OC[C@@](C)(N)CC(C)C)ccc1-2 [Example 81, (S)-ethyl (8-((2-amino-2,4-dimethylpentyl)oxy)-5H-chromeno[3,4-c]pyridin-2-yl)carbamate] |
| 1 to 10 | 1 to 10 | – | – | CC(C)C[C@H](N)COc1cc2c(cc1Cl)-c1ccncc1[C@@H](C(F)(F)F)O2 (single isomer, unassigned) [Example 27b] |
| < 1 | < 1 | – | – | CC(=O)Nc1cc2c(cn1)COc1c-2ccc(OC[C@@H](N)CC(C)C)c1Cl [Example 63, (S)—N-(8-((2-amino-4-methylpentyl)oxy)-7-chloro-5H-chromeno[3,4-c]pyridin-2-yl)acetamide] |
| 1 to 10 | – | – | – | COC(=O)Nc1cc2c(cn1)COc1cc(OCC(C)(N)CC(C)C)ccc1-2 (centres unmarked) [Example 70, methyl (8-((2-amino-2,4-dimethylpentyl)oxy)-5H-chromeno[3,4-c]pyridin-2-yl)carbamate] |
| – | – | – | 12 | CC(C)C[C@H](N)COc1ccc2c(c1)OC(C1CC1)c1c-2ccnc1N (stereo partly drawn) [Example 50, 8-(((S)-2-amino-4-methylpentyl)oxy)-5-cyclopropyl-5H-chromeno[3,4-c]pyridin-4-amine] |
| – | 1 to 10 | – | – | COC(=O)Nc1cc2c(cn1)COc1c-2ccc(OC[C@@](C)(N)CC(C)C)c1Cl [Example 92, (S)-methyl (8-((2-amino-2,4-dimethylpentyl)oxy)-7-chloro-5H-chromeno[3,4-c]pyridin-2-yl)carbamate] |
| – | – | – | 0.89 | CCOC(=O)Nc1cc2c(cn1)COc1c-2ccc(OC[C@@](C)(N)CC(C)C)c1Cl [Example 93, (S)-ethyl (8-((2-amino-2,4-dimethylpentyl)oxy)-7-chloro-5H-chromeno[3,4-c]pyridin-2-yl)carbamate] |
| – | 1 to 10 | – | – | CC(C)C[C@H](N)COc1cc2c(cc1Cl)-c1ccncc1[C@H](C(F)(F)F)O2 (single isomer, unassigned) [Example 27a] |
| – | < 1 | – | – | COC(=O)Nc1cc2c(cn1)COc1c-2ccc(OC[C@@](C)(N)CC(C)C)c1OC(F)F [Example 89, (S)-methyl (8-((2-amino-2,4-dimethylpentyl)oxy)-7-(difluoromethoxy)-5H-chromeno[3,4-c]pyridin-2-yl)carbamate] |
| – | < 1 | – | – | CC(C)C[C@](C)(N)COc1ccc2c(c1Cl)OCc1cnc(N)cc1-2 [Example 88, (S)-8-((2-amino-2,4-dimethylpentyl)oxy)-7-chloro-5H-chromeno[3,4-c]pyridin-2-amine] |
| – | 100 to 1200 | – | – | Cc1cc2c(cn1)c(=O)oc1cc(OC[C@@](C)(N)CC(C)C)c(Cl)cc12 [Example 103, (S)-8-((2-amino-2,4-dimethylpentyl)oxy)-9-chloro-2-methyl-5H-chromeno[3,4-c]pyridin-5-one] |
| – | 100 to 1200 | – | – | CC(C)C[C@@H](N)COc1ccc2c(c1)OC(C1CC1)c1cnccc1-2 (single isomer, unassigned) [Example 9b] |
| – | – | – | 21 | CC1Oc2cc(OC[C@@H](N)CC3CC3)ccc2-c2ccncc21 (stereo partly drawn) [Example 56, (2S)-1-cyclopropyl-3-((5-methyl-5H-chromeno[3,4-c]pyridin-8-yl)oxy)propan-2-amine] |
| – | 10 to 100 | – | – | CC(=O)Nc1cc2c(cn1)COc1cc(OC[C@H](CC(C)C)NS(C)(=O)=O)ccc1-2 [Example 101, (S)—N-(8-((4-methyl-2-(methylsulfonamido)pentyl)oxy)-5H-chromeno[3,4-c]pyridin-2-yl)acetamide] |
| – | 100 to 1200 | – | – | CC(C)C[C@H](N)COc1ccc2c(c1)OCc1cnc(NC(=O)c3cc(F)cc(F)c3)cc1-2 [Example 72, (S)—N-(8-((2-amino-4-methylpentyl)oxy)-5H-chromeno[3,4-c]pyridin-2-yl)-3,5-difluorobenzamide] |
| – | 1 to 10 | – | – | CC(C)C[C@](C)(N)COc1ccc2c(c1)OCc1cnc(N)cc1-2 [Example 90, (S)-8-((2-amino-2,4-dimethylpentyl)oxy)-5H-chromeno[3,4-c]pyridin-2-amine] |
| – | 1 to 10 | – | – | [2H]C([2H])(Oc1ccc2c(c1)OCc1cnc(NC(=O)OCC)cc1-2)C(C)(N)CC(C)C (racemic) [Example 96, ethyl (8-((2-amino-1,1-deutero-2,4-dimethylpentyl)oxy)-5H-chromeno[3,4-c]pyridin-2-yl)carbamate] |
| – | 100 to 1200 | – | – | N[C@@H](COc1ccc2c(c1)OCc1cnccc1-2)Cc1ccccc1 [Example 2, (R)-1-(5H-chromeno[3,4-c]pyridin-8-yloxy)-3-phenylpropan-2-amine] |
